From PubChem BioAssay AID248 (DTP/NCI, 2004)
Values joined by “and” are separate entries in the source; they are usually repeats but may differ in a detail not shown here. Identical values can stand only once. Toxic doses and inconclusive results are not listed. Rule as the data show it: active = T/C of 150% or more; inactive = T/C below 125%.

Test system: L1210 leukemia ip in BDF1 mice, survival T/C
Assay: NCI In Vivo Anticancer Drug Screen. Data for tumor model L1210 Leukemia (intraperitoneal) in B6D2F1 (BDF1) mice
Conditions: endpoint: mean survival time, higher = longer survival
Outline: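 Mice bearing the transplanted tumor received compound or vehicle. Survival of the treated group was divided by that of the vehicle-treated control group to give the ratio.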

[1] = dose: 50.0 mg/kg/injection, schedule: Q01DX009 (ip), vehicle: saline with Tween-80
[2] = dose: 100.0 mg/kg/injection, schedule: Q01DX009 (ip), vehicle: saline with Tween-80
[3] = dose: 200.0 mg/kg/injection, schedule: Q01DX009 (ip), vehicle: saline with Tween-80
[4] = dose: 100.0 mg/kg/injection, schedule: Q01DX001 (ip), vehicle: carboxymethylcellulose (CMC)
[5] = dose: 200.0 mg/kg/injection, schedule: Q01DX001 (ip), vehicle: carboxymethylcellulose (CMC)
[6] = dose: 400.0 mg/kg/injection, schedule: Q01DX001 (ip), vehicle: carboxymethylcellulose (CMC)
[7] = dose: 50.0 mg/kg/injection, schedule: Q04DX003 (ip), vehicle: saline with Tween-80
[8] = dose: 100.0 mg/kg/injection, schedule: Q04DX003 (ip), vehicle: saline with Tween-80
[9] = dose: 200.0 mg/kg/injection, schedule: Q04DX003 (ip), vehicle: saline with Tween-80
[10] = dose: 100.0 mg/kg/injection, schedule: Q01DX009 (ip), vehicle: Klucel (hydroxypropylcellulose) (HPC)
[11] = dose: 100.0 mg/kg/injection, schedule: Q04DX003 (ip), vehicle: Klucel (hydroxypropylcellulose) (HPC)
[12] = dose: 200.0 mg/kg/injection, schedule: Q01DX009 (ip), vehicle: Klucel (hydroxypropylcellulose) (HPC)
[13] = dose: 200.0 mg/kg/injection, schedule: Q04DX003 (ip), vehicle: Klucel (hydroxypropylcellulose) (HPC)
[14] = dose: 400.0 mg/kg/injection, schedule: Q01DX009 (ip), vehicle: Klucel (hydroxypropylcellulose) (HPC)
[15] = dose: 400.0 mg/kg/injection, schedule: Q04DX003 (ip), vehicle: Klucel (hydroxypropylcellulose) (HPC)
[16] = dose: 50.0 mg/kg/injection, schedule: Q01DX009 (ip), vehicle: Klucel (hydroxypropylcellulose) (HPC)

Measured: T/C

O=C(N/N=C/c1cccc([N+](=O)[O-])c1)c1ccc(Cl)cc1
inactive: [1] 96 % of control | [2] 89 % of control | [3] 89 % of control

CCOC(=O)c1cc(Cl)c2c(ccc3ccccc32)n1
inactive: [4] 115 % of control | dose: 100.0 mg/kg/injection, schedule: Q01DX009 (ip), vehicle: carboxymethylcellulose (CMC) 92 % of control | dose: 100.0 mg/kg/injection, schedule: Q04DX002 (ip), vehicle: carboxymethylcellulose (CMC) 100 % of control and 103 % of control | dose: 100.0 mg/kg/injection, schedule: Q04DX003 (ip), vehicle: carboxymethylcellulose (CMC) 105 % of control | [5] 103 % of control | dose: 200.0 mg/kg/injection, schedule: Q01DX009 (ip), vehicle: carboxymethylcellulose (CMC) 92 % of control | dose: 200.0 mg/kg/injection, schedule: Q04DX002 (ip), vehicle: carboxymethylcellulose (CMC) 93 % of control and 97 % of control | dose: 200.0 mg/kg/injection, schedule: Q04DX003 (ip), vehicle: carboxymethylcellulose (CMC) 115 % of control | [6] 97 % of control | dose: 400.0 mg/kg/injection, schedule: Q01DX009 (ip), vehicle: carboxymethylcellulose (CMC) 98 % of control | dose: 400.0 mg/kg/injection, schedule: Q04DX002 (ip), vehicle: carboxymethylcellulose (CMC) 93 % of control and 95 % of control | dose: 400.0 mg/kg/injection, schedule: Q04DX003 (ip), vehicle: carboxymethylcellulose (CMC) 107 % of control

CCCCCCCC(=N)OCC
inactive: [1] 97 % of control | [7] 104 % of control | dose: 100.0 mg/kg/injection, schedule: Q01DX001 (ip), vehicle: saline with Tween-80 94 % of control | [2] 110 % of control | [8] 93 % of control | dose: 200.0 mg/kg/injection, schedule: Q01DX001 (ip), vehicle: saline with Tween-80 104 % of control | [9] 87 % of control

CNC(=S)N/N=C(/C)C(=O)O
inactive: [10] 96 % of control | [11] 96 % of control | [12] 96 % of control | [13] 91 % of control | [14] 102 % of control | [15] 88 % of control

N#CCCN1CCCC1=O
inactive: dose: 100.0 mg/kg/injection, schedule: Q01DX001 (ip), vehicle: saline 103 % of control | dose: 200.0 mg/kg/injection, schedule: Q01DX001 (ip), vehicle: saline 100 % of control | dose: 400.0 mg/kg/injection, schedule: Q01DX001 (ip), vehicle: saline 106 % of control

Cc1ccc(S(=O)(=O)N(CCCc2c(C)nc(N)[nH]c2=O)c2ccccc2)cc1
inactive: [16] 102 % of control | [10] 91 % of control | [12] 95 % of control

N/C(=N/N=C/c1ccc(O)cc1)N[N+](=O)[O-]
inactive: [2] 105 % of control | [3] 89 % of control | dose: 400.0 mg/kg/injection, schedule: Q01DX009 (ip), vehicle: saline with Tween-80 90 % of control

CC(=O)c1ccc(C(C)(C)C)cc1
inactive: [4] 105 % of control | [5] 100 % of control | [6] 100 % of control

CC[CH2][Sn]([CH2]CC)([CH2]CC)[O][Sn]([CH2]CC)([CH2]CC)[CH2]CC
inactive: dose: 0.5 mg/kg/injection, schedule: Q01DX009 (ip), vehicle: saline 95 % of control | dose: 1.0 mg/kg/injection, schedule: Q01DX009 (ip), vehicle: saline 100 % of control | dose: 1.0 mg/kg/injection, schedule: Q04DX003 (ip), vehicle: saline with Tween-80 97 % of control | dose: 2.0 mg/kg/injection, schedule: Q01DX009 (ip), vehicle: saline 93 % of control | dose: 2.0 mg/kg/injection, schedule: Q04DX003 (ip), vehicle: saline with Tween-80 90 % of control

Cc1nc2c(Cl)cc(Cl)cc2c2c1-c1ccccc1C2=O
inactive: dose: 100.0 mg/kg/injection, schedule: Q04DX003 (ip), vehicle: acetone 89 % of control | dose: 200.0 mg/kg/injection, schedule: Q04DX003 (ip), vehicle: acetone 89 % of control | dose: 400.0 mg/kg/injection, schedule: Q04DX003 (ip), vehicle: acetone 97 % of control

CCCNC1(C(N)=O)CCN(Cc2ccccc2)CC1
inactive: dose: 25.0 mg/kg/injection, schedule: Q01DX009 (ip), vehicle: saline with Tween-80 93 % of control | dose: 25.0 mg/kg/injection, schedule: Q04DX003 (ip), vehicle: saline with Tween-80 97 % of control | [1] 95 % of control | [7] 97 % of control | [2] 91 % of control | [8] 97 % of control and 101 % of control

Cc1ccc(S(=O)(=O)NC(=O)NCCCOC(C)C)cc1
inactive: [8] 98 % of control | [9] 94 % of control | dose: 400.0 mg/kg/injection, schedule: Q04DX003 (ip), vehicle: saline with Tween-80 96 % of control

COC(=O)c1ccccc1N=NN(C)CC(C)C
inactive: [1] 110 % of control | [7] 103 % of control | [2] 121 % of control | [8] 114 % of control

O=C(CCCN1CCC(n2c(=O)[nH]c3ccccc32)CC1)c1ccc(F)cc1
inactive: dose: 6.25 mg/kg/injection, schedule: Q01DX009 (ip), vehicle: Klucel (hydroxypropylcellulose) (HPC) 92 % of control | dose: 12.5 mg/kg/injection, schedule: Q01DX009 (ip), vehicle: Klucel (hydroxypropylcellulose) (HPC) 113 % of control | dose: 12.5 mg/kg/injection, schedule: Q01DX009 (ip), vehicle: saline 102 % of control | dose: 25.0 mg/kg/injection, schedule: Q01DX009 (ip), vehicle: Klucel (hydroxypropylcellulose) (HPC) 120 % of control | dose: 25.0 mg/kg/injection, schedule: Q01DX009 (ip), vehicle: saline 110 % of control | dose: 25.0 mg/kg/injection, schedule: Q04DX003 (ip), vehicle: Klucel (hydroxypropylcellulose) (HPC) 98 % of control and 90 % of control | [16] 96 % of control | dose: 50.0 mg/kg/injection, schedule: Q01DX009 (ip), vehicle: saline 93 % of control | dose: 50.0 mg/kg/injection, schedule: Q04DX003 (ip), vehicle: Klucel (hydroxypropylcellulose) (HPC) 96 % of control | dose: 100.0 mg/kg/injection, schedule: Q01DX009 (ip), vehicle: saline 93 % of control | [11] 91 % of control and 111 % of control | [13] 110 % of control | [15] 97 % of control

COc1cc(Cl)ccc1NC(=O)Oc1ccc(C=O)cc1OC
inactive: dose: 100.0 mg/kg/injection, schedule: Q04DX002 (ip), vehicle: Klucel (hydroxypropylcellulose) (HPC) 101 % of control | dose: 200.0 mg/kg/injection, schedule: Q04DX002 (ip), vehicle: Klucel (hydroxypropylcellulose) (HPC) 90 % of control | dose: 400.0 mg/kg/injection, schedule: Q04DX002 (ip), vehicle: Klucel (hydroxypropylcellulose) (HPC) 93 % of control

O=[N+]([O-])c1ccc(O)c(C=Nc2cnc3ccccc3c2)c1
inactive: [4] 88 % of control | [5] 93 % of control | [6] 90 % of control

Cc1ccc(Cl)cc1NC(=O)C(Br)C(Br)c1ccccc1 (stereo not drawn)
inactive: [10] 100 % of control | [12] 96 % of control | [14] 104 % of control
